One test concerns the target T1, human recombinant COX-2 (Homo sapiens, UniProt P35354).
T1 construct: purchased Sigma-Aldrich
T1 sequence (P35354 18-604): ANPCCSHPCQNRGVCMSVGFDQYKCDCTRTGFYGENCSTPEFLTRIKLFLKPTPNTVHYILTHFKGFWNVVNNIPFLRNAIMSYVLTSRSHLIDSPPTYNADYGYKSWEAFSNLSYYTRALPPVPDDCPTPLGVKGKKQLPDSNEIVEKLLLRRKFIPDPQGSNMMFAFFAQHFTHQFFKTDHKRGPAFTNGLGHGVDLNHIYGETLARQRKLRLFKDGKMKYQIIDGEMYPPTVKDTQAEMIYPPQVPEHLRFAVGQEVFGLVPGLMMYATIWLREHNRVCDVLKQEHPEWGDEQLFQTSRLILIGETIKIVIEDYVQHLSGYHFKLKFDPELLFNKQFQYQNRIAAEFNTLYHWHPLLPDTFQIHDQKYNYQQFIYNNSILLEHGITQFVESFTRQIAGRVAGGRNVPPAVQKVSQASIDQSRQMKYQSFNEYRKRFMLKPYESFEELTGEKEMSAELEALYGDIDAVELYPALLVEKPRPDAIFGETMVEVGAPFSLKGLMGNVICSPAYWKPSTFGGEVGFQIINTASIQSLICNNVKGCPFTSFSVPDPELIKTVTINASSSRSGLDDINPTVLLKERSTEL
The experiment in a line: COX-2 in vitro enzymatic assay (PGE2 ELISA). The format is biochemical. The note with it: for inhibition at 20 µM: compound at 20 μM. The protocol: (§1) The inhibitory activity of compounds was tested using in vitro enzymatic assay. Ovine COX-1 (1 unit/reaction) or human recombinant COX-2 (0.5 unit/reaction; both enzymes Sigma-Aldrich, USA) was added to 180 µL of 100 mM Tris buffer (pH 8.0), containing 5 μM porcine hematin, 18 mM L-epinephrine, and 50 μM Na2EDTA. Ten µL of tested compound dissolved in DMSO or pure DMSO (as a blank) were added to the reaction.
(§2) Sigma-Aldrich, USA) was used as a reference inhibitor. After 5 min incubation at room temperature, reaction was initiated by 5 µL of arachidonic acid (10 µM) and incubated 20 min in 37°C. Then the reaction was stopped by 20 µL of formic acid (10% v/v). The concentration of prostaglandin E2 (PGE2) was measured with Prostaglandin E2 ELISA kit (Enzo Life Sciences, USA). Reaction mixture was diluted 1:15 in assay buffer (provided in the kit) and incubated according to the manufacturer instructions.
(§3) The concentration of PGE2 produced during the reaction was estimated according to absorbance […]
(§4) inhibitory activity was calculated as percentual inhibition of PGE2 production compared to blank. At first, the inhibitory activity of compounds was tested at 20 µM to see if there is any activity. IC50 […]
(§5) of COX-2. The level of percentual inhibition was chosen based on the percentual inhibition caused by […]
(§6) All the experiments were carried out in duplicates and repeated at least two times. To test whether increasing substrate concentration influences the activity of […]
(§7) reference compound. The inhibitory activity was calculated as percentual inhibition of PGE2 production compared to blank with respective concentration of AA. […]

The target in another test is T2, Ovine COX-1 (Ovis aries, UniProt P05979).
T2 construct: purchased Sigma-Aldrich
T2 sequence (P05979 25-600): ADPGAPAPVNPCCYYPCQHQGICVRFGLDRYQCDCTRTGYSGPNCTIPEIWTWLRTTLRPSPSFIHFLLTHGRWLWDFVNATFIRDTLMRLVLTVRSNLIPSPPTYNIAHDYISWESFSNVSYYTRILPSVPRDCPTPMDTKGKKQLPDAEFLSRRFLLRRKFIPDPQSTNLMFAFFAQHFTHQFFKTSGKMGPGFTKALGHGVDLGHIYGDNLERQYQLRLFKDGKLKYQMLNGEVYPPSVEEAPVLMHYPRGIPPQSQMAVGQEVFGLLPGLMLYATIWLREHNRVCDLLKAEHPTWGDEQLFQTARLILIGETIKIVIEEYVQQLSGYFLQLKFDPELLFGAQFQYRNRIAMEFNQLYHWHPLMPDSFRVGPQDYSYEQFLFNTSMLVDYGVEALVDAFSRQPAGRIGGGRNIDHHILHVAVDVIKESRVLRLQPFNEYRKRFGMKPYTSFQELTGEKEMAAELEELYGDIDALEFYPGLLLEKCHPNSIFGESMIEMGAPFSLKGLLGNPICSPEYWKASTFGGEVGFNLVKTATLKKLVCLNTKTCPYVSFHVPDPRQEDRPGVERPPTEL
Briefly: COX-1 in vitro enzymatic assay (PGE2 ELISA). Format: biochemical. The note with it: for inhibition at 20 µM: compound at 20 μM. The procedure: as §1, §2, §3, §4, §5, §6, §7
(In general: An ELISA detects its analyte on a solid surface through an enzyme-linked reagent.)

One may read the inhibition as the change of the read-out against control, counted positive when it falls. In the case of `COc1ccc(-c2ccc3c(NCc4ccc(F)c(F)c4)nc(N4CCCC4)nc3c2)cc1` [7l], the inhibition at 20 µM at human recombinant COX-2 is 8.82%; at Ovine COX-1 it was -23.6%.

Consider `COc1ccc(-c2ccc3c(NCc4ccc(F)c(F)c4)nc(N4CCNCC4)nc3c2)cc1` [7m], for which the inhibition at 20 µM at human recombinant COX-2 was 11.7%; against Ovine COX-1 it was -6.25%.

For `CCN(CC)c1nc(NCc2ccc(F)c(F)c2)c2ccc(-c3ccc(OC)cc3)cc2n1` [7n], the inhibition at 20 µM on human recombinant COX-2 was determined as 14.6%; at Ovine COX-1, 18%.

As usually defined, the IC50 is the concentration needed to halve the response being measured. On to `Fc1ccc(CNc2nc(N3CCOCC3)nc3cc(-c4cccs4)ccc23)cc1F` [7o], for which, on human recombinant COX-2, the IC50 was more than 50 µM and the inhibition at 20 µM was -3.62%. Also, the “inhibition of COX-2 (in words)” value at human recombinant COX-2 (at 50 μM) is recorded as “did not inhibit”. The inhibition at 20 µM against Ovine COX-1 came out at 66%.

As for `Cc1ccc(Nc2nc(/C=C/c3ccccc3)nc3cc(Br)ccc23)cc1` [8a], on human recombinant COX-2, the IC50 is more than 50 µM and the inhibition at 20 µM is 27.5%. Further, on Ovine COX-1, the inhibition at 20 µM was 82.2%.

Consider `Fc1ccc(CNc2nc(/C=C/c3ccccc3)nc3cc(Br)ccc23)cc1F` [8b], for which, at human recombinant COX-2, the IC50 was more than 50 µM and the inhibition at 20 µM was found to be 21.5%. On Ovine COX-1, the IC50 was found to be 1.58 ± 0.89 µM and the inhibition at 20 µM was 84.7%. For the same molecule, at Ovine COX-1 (ratio of IC50 COX-2 / IC50 COX-1), the “selectivity index (COX-2/COX-1)” value was “COX-1-selective”.

For the origin of these results see article PMC8040043, “Synthesis, Inhibitory Activity, and In Silico Modeling of Selective COX-1 Inhibitors with a Quinazoline Core” (ACS Medicinal Chemistry Letters, 2021).
